# Reference: patent US8344140B2, “18F-labelled folates” (Merck Eprova AG, priority 2007, dated 2013)
# Experiments:
# [1] = system: folate receptor-positive KB tumors; test: ex vivo biodistribution in nude mice bearing KB xenografts tumors; conditions: ~2 MBq injected, 45 min post injection
# Method: ^18F-click folate was applied in ex vivo biodistribution studies using eight nude mice bearing KB xenografts tumors. ˜2 MBq of the radiotracer were injected into each animal. In a blockade group (4 animals) […] natural folic acid was injected 10 min prior to the radiotracer. The animals were scarified 45 min post injection. […] Furthermore a specific uptake with 78% specific blockade was also found in the kidneys, which are known to express the folate receptor.
# [2] = in vitro plasma stability study, human plasma; type: in vitro ADME; conditions: 37° C.
# Method: (§1) The ^18F-click folate was employed in in vitro plasma stability studies and in metabolite studies using liver microsomes.
# (§2) ^18F-click folate was incubated with both human and murine plasma at 37° C. in a shaking water bath. Aliquots were taken at different time points and analysed by HPLC.
# [3] = metabolite study using murine liver microsomes; type: in vitro ADME; conditions: 37° C., aliquots at 0, 5, 15 and 30 min
# Method: as §1
# (§3) Metabolites studies using human and murine liver microsomes were carried out at 37° C. over a time span of 0-30 min. Aliquots were taken at 0, 5, 15 and 30 min.
# [4] = in vitro plasma stability study, murine plasma; type: in vitro ADME; conditions: 37° C.
# Method: as §1, §2
# [5] = metabolite study using human liver microsomes; type: in vitro ADME; conditions: 37° C., aliquots at 0, 5, 15 and 30 min
# Method: as §1, §3
# [6] = system: folate receptor-positive KB tumors; test: in vivo PET imaging in nude mice bearing KB xenografts tumors; conditions: ~11 MBq injected; PET scans 15 min to 45 min post injection
# Method: In vivo PET imaging using the ^18F-click folate was performed in nude mice bearing KB xenografts tumors. ˜11 MBq of the radiotracer were injected into each animal. In the blockade group 200 μg natural folic acid was injected 10 min prior to the radiotracer. The PET scans were acquired from 15 min to 45 min post injection.
# The KB tumors could be imaged by PET using ^18F-click folate.
# PET imaging using [^18F]FDG was performed with the same animals four days after the ^18F-click folate studies. ˜9 MBq of [^18F]FDG were injected into each animal. The PET scans were acquired from 30 min to 60 min post injection. […] Although [^18F]FDG is the most commonly used radiotracer in PET tumor imaging, it is known that [^18F]FDG is not suitable for the imaging of KB xenografts tumors (Bettio et al, J. Nucl. Med. […]; 47: 1153-60).
# FIG. 4 show the PET images using ^18F-click folate (left hand side) in comparison to PET images using [^18F]FDG (right hand side), the arrows indicate the position of the KB xenografts tumors.
smiles,measurement,setting,value
"Nc1nc2ncc(CNc3ccc(C(=O)NC(CCC(=O)NCCCCn4cc(CCCC[18F])nn4)C(=O)O)cc3)nc2c(=O)[nH]1 (centres unmarked) [^18F-click folate, γ-(4-(4-(4-[^18F]fluorobutyl)-1,2,3-triazol-1-yl)butyl) folic acid amide]",specific blockade of radiotracer uptake in KB tumors,"[1]; KB tumors, natural folic acid 10 min prior in blockade group",94%
same,specific blockade of radiotracer uptake in kidneys,"[1]; kidneys, natural folic acid 10 min prior in blockade group",78%
same,"unspecific uptake in gallbladder, intestine and feces",[1]; points to hepatobiliary elimination,High unspecific uptake
same,stability in plasma,"[2]; HPLC analysis, 0-120 min",high stability
same,defluorination or other radioactive degradation products in plasma,[2]; over a period of 0-120 min,No defluorination or other radioactive degradation products were detected
same,radioactive metabolites or degradation in liver microsomes,[3],no radioactive metabolites or degradation
same,stability in plasma,"[4]; HPLC analysis, 0-120 min",high stability
same,defluorination or other radioactive degradation products in plasma,[4]; over a period of 0-120 min,No defluorination or other radioactive degradation products were detected
same,radioactive metabolites or degradation in liver microsomes,[5],no radioactive metabolites or degradation
same,"accumulation of radioactivity in the abdominal region (gallbladder, intestines)",[6],high accumulation
same,tumor-to-background ratio,[6],low
